Read-outs that look alike come from different tables or passages of the source.
Assays:
[1] = target: T1, human TOR (Homo sapiens, UniProt P42345); assay: mTOR enzyme assay (DELFIA, His6-S6K substrate); type: biochemical
T1 construct: FLAG

[2] = target: PI3K-alpha (Homo sapiens, UniProt P42336); assay: PI3K-alpha fluorescence polarization assay; type: biochemical
[3] = read-out: mTOR Kinase Avg. IC50

PI3K-alpha, sequence (P42336 whole entry, species assumed): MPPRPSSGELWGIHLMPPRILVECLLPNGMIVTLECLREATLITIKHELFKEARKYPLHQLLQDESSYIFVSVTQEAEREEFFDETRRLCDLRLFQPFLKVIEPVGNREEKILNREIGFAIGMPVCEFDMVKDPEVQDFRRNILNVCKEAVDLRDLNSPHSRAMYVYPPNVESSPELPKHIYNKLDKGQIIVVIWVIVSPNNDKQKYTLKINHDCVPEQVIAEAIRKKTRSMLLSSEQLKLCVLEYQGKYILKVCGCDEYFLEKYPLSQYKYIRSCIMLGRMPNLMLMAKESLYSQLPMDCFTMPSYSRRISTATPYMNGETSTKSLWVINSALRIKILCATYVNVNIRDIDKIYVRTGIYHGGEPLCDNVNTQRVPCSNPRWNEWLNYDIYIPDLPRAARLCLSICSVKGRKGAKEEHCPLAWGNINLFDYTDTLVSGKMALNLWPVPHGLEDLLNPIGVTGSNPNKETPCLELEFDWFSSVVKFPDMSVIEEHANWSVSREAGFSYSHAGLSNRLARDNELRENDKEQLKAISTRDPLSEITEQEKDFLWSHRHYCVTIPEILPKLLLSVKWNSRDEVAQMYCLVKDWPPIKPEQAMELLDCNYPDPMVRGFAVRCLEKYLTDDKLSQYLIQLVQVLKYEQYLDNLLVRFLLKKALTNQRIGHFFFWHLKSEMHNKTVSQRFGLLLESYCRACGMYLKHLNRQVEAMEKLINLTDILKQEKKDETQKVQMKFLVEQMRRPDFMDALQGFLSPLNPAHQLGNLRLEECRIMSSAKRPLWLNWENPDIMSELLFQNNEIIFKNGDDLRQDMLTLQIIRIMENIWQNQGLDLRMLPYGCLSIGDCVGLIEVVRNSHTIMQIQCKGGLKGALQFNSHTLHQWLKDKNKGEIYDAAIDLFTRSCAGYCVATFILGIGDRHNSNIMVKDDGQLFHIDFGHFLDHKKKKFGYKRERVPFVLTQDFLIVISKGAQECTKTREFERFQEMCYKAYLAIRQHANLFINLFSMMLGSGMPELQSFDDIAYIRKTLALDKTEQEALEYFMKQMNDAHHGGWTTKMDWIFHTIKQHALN
PI3K-alpha, sequence (P27986 whole entry partner, species assumed): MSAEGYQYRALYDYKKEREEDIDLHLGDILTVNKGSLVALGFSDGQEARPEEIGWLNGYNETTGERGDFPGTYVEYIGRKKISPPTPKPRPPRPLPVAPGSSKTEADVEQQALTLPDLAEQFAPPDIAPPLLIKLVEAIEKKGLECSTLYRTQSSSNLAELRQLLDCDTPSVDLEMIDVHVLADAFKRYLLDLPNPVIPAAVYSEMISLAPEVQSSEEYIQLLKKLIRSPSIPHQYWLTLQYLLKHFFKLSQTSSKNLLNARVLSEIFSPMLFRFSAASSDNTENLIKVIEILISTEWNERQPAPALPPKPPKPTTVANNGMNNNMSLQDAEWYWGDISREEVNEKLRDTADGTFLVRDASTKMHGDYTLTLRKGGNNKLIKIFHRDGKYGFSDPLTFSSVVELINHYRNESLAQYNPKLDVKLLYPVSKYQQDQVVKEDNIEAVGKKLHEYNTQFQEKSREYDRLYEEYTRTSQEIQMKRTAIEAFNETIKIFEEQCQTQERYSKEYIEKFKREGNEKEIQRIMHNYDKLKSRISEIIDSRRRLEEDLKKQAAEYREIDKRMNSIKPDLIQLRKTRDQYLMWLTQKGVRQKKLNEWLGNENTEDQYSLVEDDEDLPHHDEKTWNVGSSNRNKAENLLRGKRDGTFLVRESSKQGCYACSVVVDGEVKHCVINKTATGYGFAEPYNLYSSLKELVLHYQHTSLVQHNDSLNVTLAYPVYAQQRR

IC50 [1, 3] [nM]	IC50 ([2]; read-out: PI3Kα Avg. IC50) [nM]	Structure (SMILES)	IC50 ([1]; mTOR Kinase Avg. IC50) [nM]	IC50 ([2]; PI3Kα Avg. IC50) [nM]
> 5000	1890	O=C1C(=Cc2c[nH]c3ccc(OCc4ccccc4)cc23)Oc2cc(O)cc(O)c21 [Example 52, 2-{[5-(benzyloxy)-1H-indol-3-yl]methylene}-4,6-dihydroxy-1-benzofuran-3(2H)-one]		
5900	4940	COc1ccc2c(c(C=C3Oc4cc(O)cc(O)c4C3=O)cn2CCCC#N)c1C [Example 239, 4-{3-[(4,6-dihydroxy-3-oxo-1-benzofuran-2(3H)-ylidene)methyl]-5-methoxy-4-methyl-1H-indol-1-yl}butanenitrile]		
390	1690	COc1cccc(-c2c(C=C3Oc4cc(O)cc(O)c4C3=O)c3ccccc3n2C)c1 [Example 196, 4,6-dihydroxy-2-{[2-(3-methoxyphenyl)-1-methyl-1H-indol-3-yl]methylene}-1-benzofuran-3(2H)-one]		
19000	936	O=C1C(=Cc2c[nH]c3cc(Cl)ccc23)Oc2cc(O)cc(O)c21 [Example 172, 2-[(6-chloro-1H-indol-3-yl)methylene]-4,6-dihydroxy-1-benzofuran-3(2H)-one]		
2600	2040	Cc1c(C=C2Oc3cc(O)cc(O)c3C2=O)c2ccccc2n1CCCl [Example 92, 2-{[1-(2-chloroethyl)-2-methyl-1H-indol-3-yl]methylene}-4,6-dihydroxy-1-benzofuran-3(2H)-one]		
> 20000	3550	COC(=O)c1cccc2c(C=C3Oc4cc(O)cc(O)c4C3=O)cn(C)c12 [Example 250, methyl 3-[(4,6-dihydroxy-3-oxo-1-benzofuran-2(3H)-ylidene)methyl]-1-methyl-1H-indole-7-carboxylate]		
5900	2520	O=C1C(=Cc2c(-c3ccccc3)[nH]c3ccccc23)Oc2cccc(O)c21 [Example 75, 4-hydroxy-2-[(2-phenyl-1H-indol-3-yl)methylene]-1-benzofuran-3(2H)-one]		
2900	3150	Cc1c(C=C2Oc3cc(O)cc(O)c3C2=O)c2ccccc2n1C [Example 247, 2-[(1,2-dimethyl-1H-indol-3-yl)methylene]-4,6-dihydroxy-1-benzofuran-3(2H)-one]		
12500	1470	O=C1C(=Cc2c[nH]c3ccc([N+](=O)[O-])cc23)Oc2cc(O)cc(O)c21 [Example 178, 4,6-dihydroxy-2-[(5-nitro-1H-indol-3-yl)methylene]-1-benzofuran-3(2H)-one]		
> 20000	> 10000	O=C1/C(=C/c2c(-c3ccc4ccccc4c3)[nH]c3ccccc23)Sc2ccc(Cl)cc21 [Example 285, (2Z)-5-chloro-2-{[2-(2-naphthyl)-1H-indol-3-yl]methylene}-1-benzothiophen-3(2H)-one]		
600	1760	NC(=O)Cn1c(-c2ccccc2)c(C=C2Oc3cc(O)cc(O)c3C2=O)c2ccccc21 [Example 161, 2-{3-[(4,6-dihydroxy-3-oxo-1-benzofuran-2(3H)-ylidene)methyl]-2-phenyl-1H-indol-1-yl}acetamide]		
> 5000	2430	Cc1cccc2c(/C=C3\Oc4cc(O)cc(O)c4C3=O)c[nH]c12 [Example 49, (2Z)-4,6-dihydroxy-2-[(7-methyl-1H-indol-3-yl)methylene]-1-benzofuran-3(2H)-one]		
6100	1200	O=C(Nc1ccc2[nH]cc(C=C3Oc4cc(O)cc(O)c4C3=O)c2c1)c1ccco1 [Example 183, N-{3-[(4,6-dihydroxy-3-oxo-1-benzofuran-2(3H)-ylidene)methyl]-1H-indol-5-yl}-2-furamide]		
> 20000	1160	O=C1C(=Cc2c[nH]c3cc(C(F)(F)F)ccc23)Oc2cc(O)cc(O)c21 [Example 221, 4,6-dihydroxy-2-{[6-(trifluoromethyl)-1H-indol-3-yl]methylene}-1-benzofuran-3(2H)-one]		
> 20000	1000	COc1ccc2[nH]cc(C=C3Oc4cc(O)cc(O)c4C3=O)c2c1C [Example 219, 4,6-dihydroxy-2-[(5-methoxy-4-methyl-1H-indol-3-yl)methylene]-1-benzofuran-3(2H)-one]		
300	2460	COc1cccc2c1c(C=C1Oc3cc(O)cc(O)c3C1=O)cn2C [Example 255, 4,6-dihydroxy-2-[(4-methoxy-1-methyl-1H-indol-3-yl)methylene]-1-benzofuran-3(2H)-one]		
4500	1670	Cn1c(-c2ccc(OCc3ccccc3)cc2)c(C=C2Oc3cc(O)cc(O)c3C2=O)c2ccccc21 [Example 260, 2-({2-[4-(benzyloxy)phenyl]-1-methyl-1H-indol-3-yl}methylene)-4,6-dihydroxy-1-benzofuran-3(2H)-one]		
1300	> 10000	CN(C)CCn1cc(C=C2Oc3cc(O)cc(O)c3C2=O)c2c(C#N)cccc21 [Example 265, 3-[(4,6-dihydroxy-3-oxo-1-benzofuran-2(3H)-ylidene)methyl]-1-[2-(dimethylamino)ethyl]-1H-indole-4-carbonitrile]		

IC50 [1, 3] [nM]	IC50 ([2]; read-out: PI3Kα Avg. IC50) [nM]	Structure (SMILES)	IC50 ([1]; mTOR Kinase Avg. IC50) [nM]	IC50 ([2]; PI3Kα Avg. IC50) [nM]
> 20000	4710	N#CCCCn1cc(C=C2Oc3cc(O)cc(O)c3C2=O)c2ccccc21 [Example 241, 4-{3-[(4,6-dihydroxy-3-oxo-1-benzofuran-2(3H)-ylidene)methyl]-1H-indol-1-yl}butanenitrile]		
850	2040	Cc1c(C=C2Oc3cc(O)cc(O)c3C2=O)c2cc(Cl)ccc2n1C [Example 233, 2-[(5-chloro-1,2-dimethyl-1H-indol-3-yl)methylene]-4,6-dihydroxy-1-benzofuran-3(2H)-one]		
> 20000	> 10000	O=C1C(=Cc2c[nH]c3ccccc23)Oc2cc(O)ccc21 [Example 5, 6-hydroxy-2-(1H-indol-3-ylmethylene)-1-benzofuran-3(2H)-one]		
420	> 10000	N#Cc1cccc2c1c(C=C1Oc3cc(O)cc(O)c3C1=O)cn2CCN1CCOCC1 [Example 262, 3-[(4,6-dihydroxy-3-oxo-1-benzofuran-2(3H)-ylidene)methyl]-1-(2-morpholin-4-ylethyl)-1H-indole-4-carbonitrile]		
9100	3590	CS(=O)(=O)c1ccc2c(C=C3Oc4cc(O)cc(O)c4C3=O)c[nH]c2c1 [Example 169, 4,6-dihydroxy-2-{[6-(methylsulfonyl)-1H-indol-3-yl]methylene}-1-benzofuran-3(2H)-one]		
16000	5760	COc1ccc2c(C=C3Oc4cc(O)cc(O)c4C3=O)c[nH]c2c1 [Example 186, 4,6-dihydroxy-2-[(6-methoxy-1H-indol-3-yl)methylene]-1-benzofuran-3(2H)-one]		
		O=C1C(=Cc2c[nH]c3ccccc23)Oc2cc(O)cc(O)c21 [Example 13, 4,6-dihydroxy-2-(1H-indol-3-ylmethylene)-1-benzofuran-3(2H)-one]	9200	6750
490	> 10000	O=C1C(=Cc2c(Br)[nH]c3ccccc23)Oc2cc(O)cc(O)c21 [Example 80, 2-[(2-bromo-1H-indol-3-yl)methylene]-4,6-dihydroxy-1-benzofuran-3(2H)-one]		
680	1980	CC(C)Oc1ccc(-c2c(C=C3Oc4cc(O)cc(O)c4C3=O)c3ccccc3n2C)cc1 [Example 261, 4,6-dihydroxy-2-{[2-(4-isopropoxyphenyl)-1-methyl-1H-indol-3-yl]methylene}-1-benzofuran-3(2H)-one]		
> 5000	> 10000	O=C1/C(=C/c2cn(Cc3ccccc3)c3ccccc23)Oc2cc(O)cc(O)c21 [Example 51, (2Z)-2-[(1-benzyl-1H-indol-3-yl)methylene]-4,6-dihydroxy-1-benzofuran-3(2H)-one]		
2850	2400	O=C1C(=Cc2c(-c3ccccc3)[nH]c3ccccc23)Oc2cc(O)ccc21 [Example 6, 6-hydroxy-2-[(2-phenyl-1H-indol-3-yl)methylene]-1-benzofuran-3(2H)-one]		
4300	1980	N#Cc1cccc2[nH]cc(C=C3Oc4cc(O)cc(O)c4C3=O)c12 [Example 220, 3-[(4,6-dihydroxy-3-oxo-1-benzofuran-2(3H)-ylidene)methyl]-1H-indole-4-carbonitrile]		
> 20000	> 10000	O=C1C(=Cc2c(-c3ccccc3)[nH]c3ccccc23)Oc2ccccc21 [Example 2, 2-[(2-phenyl-1H-indol-3-yl)methylene]-1-benzofuran-3(2H)-one]		
390	4180	Cc1noc(C)c1-c1c(C=C2Oc3cc(O)cc(O)c3C2=O)c2ccccc2n1C [Example 191, 2-{[2-(3,5-dimethylisoxazol-4-yl)-1-methyl-1H-indol-3-yl]methylene}-4,6-dihydroxy-1-benzofuran-3(2H)-one]		
> 5000	2380	Cc1c(C=C2Oc3cc(O)cc(O)c3C2=O)c2ccccc2n1CCCCl [Example 93, 2-{[1-(3-chloropropyl)-2-methyl-1H-indol-3-yl]methylene}-4,6-dihydroxy-1-benzofuran-3(2H)-one]		
810	290	COCCn1cc(C=C2Oc3cc(O)cc(O)c3C2=O)c2c(C#N)cccc21 [Example 266, 3-[(4,6-dihydroxy-3-oxo-1-benzofuran-2(3H)-ylidene)methyl]-1-(2-methoxyethyl)-1H-indole-4-carbonitrile]		
> 20000	662	COc1ccc2c(c1)c(/C=C1\Oc3c(ccc(O)c3C)C1=O)c(C)n2CCCN(C)C [Example 450, (2Z)-2-({1-[3-(Dimethylamino)propyl]-5-methoxy-2-methyl-1H-indol-3-yl}methylene)-6-hydroxy-7-methyl-1-benzofuran-3(2H)-one]		
300	1290	O=C1C(=Cc2c(-c3ccsc3)[nH]c3ccccc23)Oc2cc(O)cc(O)c21 [Example 207, 4,6-dihydroxy-2-{[2-(3-thienyl)-1H-indol-3-yl]methylene}-1-benzofuran-3(2H)-one]		

Source: patent publication US20090311217A1, “3-SUBSTITUTED-1H-INDOLE COMPOUNDS, THEIR USE AS MTOR KINASE AND PI3 KINASE INHIBITORS, AND THEIR SYNTHESES” (priority 2008, published 2009)
